# Measurements as given in patent US7745465B2, “Method of enhancing cellular production of molecular chaperone, hydroxylamine derivatives useful for enhancing the chaperone production and the preparation thereof” (CytRx Corporation, priority 1995, dated 2010).
# How the values were obtained:
# Hsp60 = experiment: Western blot of hsp60 in heat shocked H9c2 cells; type: cell-based, rat
# Procedure: (§1) Experiments set forth in this section were conducted to determine whether N-[2-hydroxy-3-(1-piperidinyl)propoxy]-3-pyridinecarboximidoyl chloride maleate acts to increase the expression of molecular chaperon by a cell. The accumulation of different heat shock proteins subsequent to a period of exposure to heat shock alone, and to heat shock in combination with N-[2-hydroxy-3-(1-piperidinyl)propoxy]-3-pyridinecarboximidoyl chloride maleate administration, was examined by adding 10^−5 M of N-[2-hydroxy-3-(1-piperidinyl)propoxy]-3-pyridinecarboximidoyl chloride maleate before, during, or immediately after hyperthermic treatment of heart myogenic cells (H9c2 cells).
# (§2) The embryonic rat heart-derived cell line H9c2 was obtained from European Collection of Animal cell Cultures (ECACC) (88092904). The cells were maintained at 37° C. in Dulbecco's modified Eagle's medium (DMEM) supplemented with 10% fetal calf serum (GIBCO) in JOUAN C02 thermostat (5% CO2).
# Heat shock was performed at 43° C. in CO2 thermostat for the given time intervals (20, 40, 60, 90 and 120 min.). Cells were then taken back to 37° C. for 6 hours and proteins were extracted for SDS-PAGE. When N-[2-hydroxy-3-(1-piperidinyl)propoxy ]-3-pyridinecarboximidoyl chloride maleate was added before heat shock. 10^−5 M N-[2-hydroxy-3-(1-piperidinyl)propoxy]-3-pyridinecarboximidoyl chloride maleate was administered for 16 hours before the stress. In other set of experiments, N-[2-hydroxy-3-(1-piperidinyl)propoxy]-3-pyridinecarboximidoyl chloride maleate was added in 10^−5 M concentration right after heat stress, during the 6 hours recovery period. The experiments were repeated three times.
# For SDS-P AGE, cells were grown in 6 cm Petri dishes. The amount of the cells at the start of the experiment was 8×10^5 and were still suconfluent when proteins were extracted. After the 6 hours recovery cells were washed two times in PBS then scrapped from the surface of the dishes in PBS. […]
# (§3) Protein concentration was determined from 5:1 samples by the Bradford assay (M. M. Braford, Anal. Biochem., 72: 248-254 (1976)) in three parallel. […]
# [1] = tested on: Rats with genetic hypertension; experiment: Morphological examination of the thoracic aorta of rats with genetic hypertension; type: in vivo, rat; conditions: daily oral treatment (20 mg/kg 8 days or 5 mg/kg 20 days)
# Procedure: Rats with genetic hypertension were divided into four groups of four. The groups were treated daily, orally, the first group with physiological saline, the second group with N-[2-hydroxy-3-(1-piperidinyl)]-propoxy-3-pyridine-carboximidoyl-chloride maleate (20 mg/kg) for 8 days, the third group with N-[2-hydroxy-3-(1-piperidinyl)-propoxy]-benzimidoyl-chloride monohydrochloride (5 mg/kg) for 20 days and the fourth group with N-[2-hydroxy-3-(1-piperidinyl)-propoxy]-2-thiophenecarboximidoyl-chloride monohydrochloride (5 mg/kg) for 20 days. Animals were sacrificed, aortas were isolated, snap frozen in liquid nitrogen and were stored at −70° C. till they were used.
# The examination was performed according to published methods (Br. J. of Pharmacol., 1995; 115, […]). A 1 mm^2 area of the thoracic aorta was excised and fixed in 2.5% glutaral-dehyde at room temperature. Post fixation was performed in 1% osmium-tetroxide for one hour. The tissue was dehydrated in ethanol and was embedded in Durcupan ACM. Pictures were taken by a Hitachi 7100 electronmicroscope and were evaluated qualitatively.
# Hsp72 = experiment: Western blot of hsp72 in heat shocked H9c2 cells; type: cell-based, rat
# Procedure: as §1, §2
# (§4) Heat shock was performed at 43° C. in CO2 thermostat for the given time intervals (20, 40, 60, 90 and 120 min.). Cells were then taken back to 37° C. for 6 hours and proteins were extracted for SDS-PAGE. […]
# as §3
# Hsp90 = experiment: Western blot of hsp90 in heat shocked H9c2 cells; type: cell-based, rat
# Procedure: as §1, §2, §4, §3
# HSPs = experiment: Western blot overview of all HSPs in heat shocked H9c2 heart cells; type: cell-based, rat; conditions: added 16 hours before the heat treatment
# Procedure: as §1, §2, §4, §3
# [2] = added during the recovery phase
smiles,measurement,setting,value
O=C(O)/C=C\C(=O)O.OC(CON=C(Cl)c1cccnc1)CN1CCCCC1 (stereo not drawn) [N-[2-hydroxy-3-(1-piperidinyl)-propoxy]3-pyridinecarboximidoyl chloride maleate],amount of hsp60 increased (compared to 37° C. control),"Hsp60; 10^−5 M added 16 hours before heat stress, 20 min. heat treatment at 43° C.",about fivefold
same,effect on the level of hsp60,Hsp60; [2],also effective though to a significantly lesser extent
same,effect on the level of hsp60,"Hsp60; treatment at 37° C., no heat shock",no measurable effect
same,regeneration of the cells of aorta,[1],facilitated the regeneration of the cells of aorta
same,effect on hsp72 level,Hsp72; [2],also effective though to a lesser degree
same,hsp72 level increased when comparing to 37° C. samples,"Hsp72; administration before heat stress, 60 min. heat stress",about 50 times
same,level of Hsp90 increased,"Hsp90; added before the heat stress, 20 min. heat treatment",about fivefold
same,effect on HSP90 level,Hsp90; added following 43° C. 60 min. treatment,as effective (if not more) as if added before high temperature stress
same,level of all HSPs increased further as compared to that observed upon heat stress,HSPs,at least twofold
